# Reference: ChEMBL document CHEMBL1154454, “Tetrahydronaphthyl azole oxime ethers: the conformationally rigid analogues of oxiconazole as antibacterials” (2009)
# Key:
# Aspergillus fumigatus = test: Antimicrobial activity against Aspergillus fumigatus after 72 hrs by standard microbroth dilution assay; type: functional
# Sporothrix schenckii = test: Antimicrobial activity against Sporothrix schenckii after 72 hrs by standard microbroth dilution assay; type: functional
# Candida parapsilosis = test: Antimicrobial activity against Candida parapsilosis after 48 hrs by standard microbroth dilution assay; type: functional; settings: Lodderomyces parapsilosis
# Candida albicans = test: Antimicrobial activity against Candida albicans after 48 hrs by standard microbroth dilution assay; type: functional
# Cryptococcus neoformans = test: Antimicrobial activity against Cryptococcus neoformans after 72 hrs by standard microbroth dilution assay; type: functional
# [1] = tested on: Trichophyton mentagrophytes; test: Antimicrobial activity against Trichophyton mentagrophytes after 96 hrs by standard microbroth dilution assay; type: functional
# Pseudomonas aeruginosa [2] = test: Antimicrobial activity against Pseudomonas aeruginosa ATCC BAA427 after 24 hrs by standard microbroth dilution assay; type: functional
# Escherichia coli [3] = test: microbe, parasite or virus in culture; type: functional; settings: ATCC 9637, 24 h
# Description: (§1) Antimicrobial activity against Escherichia coli ATCC 9637 after 24 hrs by standard microbroth dilution assay
# Staphylococcus aureus [4] = test: microbe, parasite or virus in culture; type: functional; settings: ATCC 25923, 24 h
# Description: (§2) Antimicrobial activity against Staphylococcus aureus ATCC 25923 after 24 hrs by standard microbroth dilution assay
# Klebsiella pneumoniae [5] = test: microbe, parasite or virus in culture; type: functional; settings: ATCC 27736, 24 h
# Description: (§3) Antimicrobial activity against Klebsiella pneumoniae ATCC 27736 after 24 hrs by standard microbroth dilution assay
# Klebsiella pneumoniae [6] = settings: ATCC 27736
# Description: as §3
# Staphylococcus aureus [7] = settings: ATCC 25923
# Description: as §2
# Pseudomonas aeruginosa [8] = tested on: Pseudomonas aeruginosa
# Escherichia coli [9] = settings: ATCC 9637
# Description: as §1
Compound,MIC (Aspergillus fumigatus) [µg/mL],MIC (Sporothrix schenckii) [µg/mL],MIC (Candida parapsilosis) [µg/mL],MIC (Candida albicans) [µg/mL],MIC (Cryptococcus neoformans) [µg/mL],MIC [1] [µg/mL],MIC (Pseudomonas aeruginosa [2]) [µg/mL],MIC (Escherichia coli [3]) [µg/mL],MIC (Staphylococcus aureus [4]) [µg/mL],MIC (Klebsiella pneumoniae [5]) [µg/mL],MIC (Klebsiella pneumoniae [6]) [µg/mL],MIC (Staphylococcus aureus [7]) [µg/mL],MIC (Pseudomonas aeruginosa [8]) [µg/mL],MIC (Escherichia coli [9]) [µg/mL]
OC(Cn1cncn1)(Cn1cncn1)c1ccc(F)cc1F [FLUCONAZOLE],2,2,1,0.5,1,1,–,–,–,–,–,–,–,–
Clc1cccc(CO/N=C2\c3ccccc3CCC2Cn2cncn2)c1 (stereo not given),> 50,> 50,> 50,> 50,> 50,> 50,> 50,12.2,12.2,> 50,–,–,–,–
Fc1cccc2c1CCC(Cn1ccnc1)/C2=N/OCc1ccccc1 (stereo not given),> 50,> 50,> 50,> 50,> 50,> 50,> 50,0.781,3.12,6.25,–,–,–,–
c1ccc(CO/N=C2\c3ccccc3CCC2Cn2cncn2)cc1 (stereo not given),> 50,> 50,> 50,> 50,> 50,> 50,> 50,25,> 50,> 50,–,–,–,–
Clc1cccc2c1CCC(Cn1ccnc1)/C2=N/OCc1ccccc1 (stereo not given),25,> 50,> 50,> 50,> 50,> 50,> 50,0.391,1.56,6.25,–,–,–,–
Cc1cccc2c1CCC(Cn1cncn1)/C2=N/OCc1ccccc1 (stereo not given),> 50,> 50,> 50,> 50,> 50,> 50,> 50,25,> 50,> 50,–,–,–,–
Fc1cccc2c1CCC(Cn1cncn1)/C2=N/OCc1ccccc1 (stereo not given),> 50,> 50,> 50,> 50,> 50,> 50,> 50,25,> 50,> 50,–,–,–,–
Clc1cccc(CO/N=C2\c3cccc(Cl)c3CCC2Cn2cncn2)c1 (stereo not given),> 50,> 50,> 50,> 50,> 50,> 50,> 50,6.25,> 50,> 50,–,–,–,–
Clc1cccc2c1CCC(Cn1ccnc1)/C2=N\OCc1ccccc1 (stereo not given),> 50,50,> 50,50,> 50,12.5,> 50,> 50,3.12,> 50,–,–,–,–
Fc1cccc2c1CCC(Cn1ccnc1)/C2=N/OCc1cccc(Cl)c1 (stereo not given),> 50,> 50,> 50,> 50,> 50,> 50,> 50,0.391,0.781,1.56,–,–,–,–
Brc1cccc2c1CCC(Cn1ccnc1)/C2=N/OCc1ccccc1 (stereo not given),50,> 50,> 50,> 50,> 50,> 50,> 50,0.391,1.56,3.12,–,–,–,–
Clc1cccc(CO/N=C2\c3ccccc3CCC2Cn2ccnc2)c1 (stereo not given),25,> 50,> 50,> 50,> 50,> 50,> 50,0.391,1.56,3.12,–,–,–,–
Cc1cccc2c1CCC(Cn1ccnc1)/C2=N/OCc1cccc(Cl)c1 (stereo not given),50,> 50,> 50,> 50,> 50,> 50,> 50,0.391,0.781,1.56,–,–,–,–
Clc1cccc(CO/N=C2/c3ccccc3CCC2Cn2ccnc2)c1 (stereo not given),> 50,> 50,> 50,> 50,> 50,25,> 50,> 50,6.25,> 50,–,–,–,–
c1ccc(CO/N=C2\c3ccccc3CCC2Cn2ccnc2)cc1 (stereo not given),50,> 50,> 50,> 50,> 50,> 50,> 50,0.781,6.25,6.25,–,–,–,–
Cc1cccc2c1CCC(Cn1ccnc1)/C2=N/OCc1ccccc1 (stereo not given),> 50,> 50,> 50,> 50,> 50,> 50,> 50,0.781,1.56,6.25,–,–,–,–
GENTAMICIN,–,–,–,–,–,–,–,–,–,–,0.78,6.25,25,0.18
Clc1cccc(CO/N=C2/c3cccc(Br)c3CCC2Cn2ccnc2)c1 (stereo not given),> 50,50,> 50,50,> 50,12.5,> 50,> 50,1.56,> 50,–,–,–,–
Cc1cccc2c1CCC(Cn1cncn1)/C2=N/OCc1cccc(Cl)c1 (stereo not given),> 50,> 50,> 50,> 50,> 50,> 50,> 50,6.25,6.25,> 50,–,–,–,–
Clc1cccc2c1CCC(Cn1cncn1)/C2=N/OCc1ccccc1 (stereo not given),> 50,> 50,> 50,> 50,> 50,> 50,> 50,25,> 50,> 50,–,–,–,–
Fc1cccc2c1CCC(Cn1cncn1)/C2=N/OCc1cccc(Cl)c1 (stereo not given),> 50,> 50,> 50,> 50,> 50,> 50,> 50,50,> 50,> 50,–,–,–,–
Brc1cccc2c1CCC(Cn1cncn1)/C2=N/OCc1ccccc1 (stereo not given),> 50,> 50,> 50,> 50,> 50,> 50,> 50,6.25,12.5,> 50,–,–,–,–
Clc1cccc(CO/N=C2\c3cccc(Br)c3CCC2Cn2cncn2)c1 (stereo not given),> 50,> 50,> 50,> 50,> 50,> 50,> 50,3.12,6.25,> 50,–,–,–,–
Clc1cccc(CO/N=C2\c3cccc(Br)c3CCC2Cn2ccnc2)c1 (stereo not given),> 50,> 50,50,> 50,> 50,> 50,> 50,0.391,0.781,1.56,–,–,–,–
Clc1ccc(CO/N=C(\Cn2ccnc2)c2ccc(Cl)cc2Cl)c(Cl)c1 [OXICONAZOLE],6.25,3.12,3.12,12.5,0.01,6.25,> 50,> 50,6.25,> 50,–,–,–,–
